From ChEMBL document CHEMBL1201862, “PubChem BioAssay data set” (2004)
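A five-concentration, 48-hour dose response in 96-well plates underlies each endpoint, interpolated linearly between surrounding concentrations. Here, GI50 denotes the concentration required for 50% inhibition of growth.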 Activity calls are given as the source filed them. Rule as the data show it: active = GI50 up to about 1.1 µM and inactive = higher.

Key:
Test in all cases: NCI anticancer screen, dose series, 48 h
[1] = system: CAKI-1
[2] = system: T47D
[3] = system: DU-145
[4] = system: SK-MEL-2
[5] = system: IGROV-1
[6] = system: NCI-H23
[7] = system: Malme-3M
[8] = system: RPMI-8226
[9] = system: NCI-H522
[10] = system: SF-295
[11] = system: SK-OV-3
[12] = system: CCRF-CEM
[13] = system: HCC 2998
[14] = system: UACC-257
[15] = system: OVCAR-4
[16] = system: MOLT-4
[17] = system: MDA-MB-435
[18] = system: RXF 393
[19] = system: U-251
[20] = system: HOP-62

Row | SMILES | GI50 [1] | GI50 [2] | GI50 [3] | GI50 [4] | GI50 [5] | GI50 [6] | GI50 [7] | GI50 [8] | GI50 [9] | GI50 [10] | GI50 [11] | GI50 [12] | GI50 [13] | GI50 [14] | GI50 [15] | GI50 [16] | GI50 [17] | GI50 [18] | GI50 [19] | GI50 [20]
1 | C=C(OC1C(C)=C2C(C1OC(=O)CCCCCCC)C(C)(OC(C)=O)CC(OC(=O)CCC)C1(O)C2OC(=O)C1(C)O)/C(C)=C/C (stereo unspecified) | 0.0125 µM (active) | 0.000135 µM (active) | < 0.0001 µM (active) | 0.0125 µM (active) | 0.0125 µM (active) | 0.0125 µM (active) | 0.0125 µM (active) | 0.0125 µM (active) | 0.0125 µM (active) | 0.0125 µM (active) | 0.34 µM (active) | 0.0141 µM (active) | 0.0125 µM (active) | 0.0125 µM (active) | 0.0125 µM (active) | 0.0125 µM (active) | < 0.0001 µM (active) | 0.0125 µM (active) | 0.0125 µM (active) | –
2 | COc1ccc([C@H]2[C@H]3COC(=O)[C@H]3C(C#N)=C3Sc4ccccc4N32)cc1 | 21.7 µM (inactive) | 8.89 µM (inactive) | 19.2 µM (inactive) | 19.1 µM (inactive) | – | 22.8 µM (inactive) | 43 µM (inactive) | 20.7 µM (inactive) | 18.1 µM (inactive) | 16.3 µM (inactive) | 39.9 µM (inactive) | 11.9 µM (inactive) | 44.3 µM (inactive) | 40.6 µM (inactive) | 33.7 µM (inactive) | 13.4 µM (inactive) | 44.2 µM (inactive) | 3.11 µM (inactive) | 24.6 µM (inactive) | 39 µM (inactive)
3 | N#Cc1c(N2CCCC2)ncn(Cc2ccccc2)c1=O | – | > 100 µM (inactive) | > 100 µM (inactive) | > 100 µM (inactive) | > 100 µM (inactive) | – | > 100 µM (inactive) | > 100 µM (inactive) | > 100 µM (inactive) | > 100 µM (inactive) | > 100 µM (inactive) | > 100 µM (inactive) | > 100 µM (inactive) | > 100 µM (inactive) | > 100 µM (inactive) | > 100 µM (inactive) | > 100 µM (inactive) | > 100 µM (inactive) | > 100 µM (inactive) | > 100 µM (inactive)
4 | COc1ccc(/N=C2\C(=O)C3=C(OC(C)(C)CC3)c3ccccc32)cc1 | 0.991 µM (active) | 0.839 µM (active) | 0.871 µM (active) | 1.16 µM (inactive) | 1.36 µM (inactive) | 1.31 µM (inactive) | 0.791 µM (active) | – | 1.04 µM (active) | 0.863 µM (active) | 1.53 µM (inactive) | 1.48 µM (inactive) | 1.51 µM (inactive) | 0.968 µM (active) | 0.773 µM (active) | 2.11 µM (inactive) | 0.264 µM (active) | 1.09 µM (active) | 0.841 µM (active) | 0.91 µM (active)
5 | C=CCNC(=O)NC1=CSC2=NC(=O)C3(NN12)c1ccccc1-c1ccccc13 | > 10 µM (inactive) | > 10 µM (inactive) | > 10 µM (inactive) | – | > 10 µM (inactive) | > 10 µM (inactive) | > 10 µM (inactive) | > 10 µM (inactive) | > 10 µM (inactive) | > 10 µM (inactive) | > 10 µM (inactive) | > 10 µM (inactive) | > 10 µM (inactive) | > 10 µM (inactive) | > 10 µM (inactive) | > 10 µM (inactive) | > 10 µM (inactive) | > 10 µM (inactive) | – | > 10 µM (inactive)
6 | CN1C(=O)[C@@]2(C=CC3(CC2)OCCO3)c2ccccc21 | > 50 µM (inactive) | 35 µM (inactive) | > 50 µM (inactive) | > 50 µM (inactive) | 0.48 µM (active) | 21.8 µM (inactive) | – | > 50 µM (inactive) | 8.53 µM (inactive) | > 50 µM (inactive) | > 50 µM (inactive) | > 50 µM (inactive) | > 50 µM (inactive) | > 50 µM (inactive) | > 50 µM (inactive) | > 46.3 µM (inactive) | > 45 µM (inactive) | > 50 µM (inactive) | > 50 µM (inactive) | > 32.1 µM (inactive)
7 | O=C(O)C1CCCN1Cc1c[nH]c2ccccc12 (stereo unspecified) | > 100 µM (inactive) | > 100 µM (inactive) | > 100 µM (inactive) | > 100 µM (inactive) | > 100 µM (inactive) | > 100 µM (inactive) | > 100 µM (inactive) | > 100 µM (inactive) | > 100 µM (inactive) | > 100 µM (inactive) | > 100 µM (inactive) | > 100 µM (inactive) | – | > 100 µM (inactive) | > 100 µM (inactive) | > 100 µM (inactive) | > 100 µM (inactive) | > 100 µM (inactive) | > 100 µM (inactive) | > 100 µM (inactive)
